Experiments:
Test in all cases: Test C pre-/postemergence greenhouse test, plant response rating 0-100
Format in all cases: in vivo
Conditions in all cases: Postemergence
[1] = system: lambsquarters (Chenopodium album)
Procedure, shortened: (§1)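 Plants were treated either at seeding (soil of loam and sand) or as 2–18 cm seedlings in a sphagnum peat mix, using test chemicals in a surfactant-containing non-phytotoxic solvent. Visual assessment relative to controls followed 13–15 days later.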

[2] = system: galium (catchweed bedstraw, Galium aparine)
Procedure, shortened: as §1

[3] = system: pigweed (Amaranthus retroflexus)
Procedure, shortened: as §1

[4] = system: large (Lg) crabgrass (Digitaria sanguinalis)
Procedure, shortened: as §1

[5] = system: giant foxtail (Setaria faberii)
Procedure, shortened: as §1

[6] = system: johnsongrass (Sorghum halepense)
Procedure, shortened: as §1

soybean (Glycine max) = system: soybean (Glycine max)
Procedure, shortened: as §1

[7] = system: yellow nutsedge (Cyperus esculentus)
Procedure, shortened: as §1

[8] = system: winter wheat (Triticum aestivum)
Procedure, shortened: as §1

corn (Zea mays) = system: corn (Zea mays)
Procedure, shortened: as §1

[9] = system: velvetleaf (Abutilon theophrasti)
Procedure, shortened: as §1

[10] = system: Italian ryegrass (Lolium multiflorum)
Procedure, shortened: as §1

[11] = system: morningglory (Ipomoea coccinea)
Procedure, shortened: as §1

Cn1cc(C(=NN2CCCC2)c2ccccc2)c(-c2cc(Cl)c(Cl)c(Cl)c2)n1 [Compound 25]
Plant response rating (0 to 100), Lambsquarters ([1]; 62 g ai/ha): 0
Plant response rating (0 to 100), Lambsquarters ([1]; 125 g ai/ha): 0
Plant response rating, Lambsquarters ([1]; 250 g ai/ha, scale 0 to 100): 20
Plant response rating (0 to 100), Galium ([2]; 31 g ai/ha): 0
Plant response rating (0 to 100), Galium ([2]; 62 g ai/ha): 0
Plant response rating (0 to 100), Galium ([2]; 125 g ai/ha): 0
Plant response rating, Galium ([2]; 250 g ai/ha, scale 0 to 100): 0
Plant response rating (0 to 100), Pigweed ([3]; 62 g ai/ha): 80
Plant response rating (0 to 100), Pigweed ([3]; 125 g ai/ha): 98
Plant response rating, Pigweed ([3]; 250 g ai/ha, scale 0 to 100): 100
Plant response rating (0 to 100), Crabgrass, Large ([4]; 31 g ai/ha): 0
Plant response rating (0 to 100), Crabgrass, Large ([4]; 62 g ai/ha): 0
Plant response rating (0 to 100), Crabgrass, Large ([4]; 125 g ai/ha): 0
Plant response rating, Crabgrass, Large ([4]; 250 g ai/ha, scale 0 to 100): 0
Plant response rating (0 to 100), Foxtail, Giant ([5]; 31 g ai/ha): 0
Plant response rating (0 to 100), Foxtail, Giant ([5]; 62 g ai/ha): 0
Plant response rating (0 to 100), Foxtail, Giant ([5]; 125 g ai/ha): 0
Plant response rating, Foxtail, Giant ([5]; 250 g ai/ha, scale 0 to 100): 0
Plant response rating (0 to 100), Johnsongrass ([6]; 62 g ai/ha): 0
Plant response rating (0 to 100), Johnsongrass ([6]; 125 g ai/ha): 0
Plant response rating, Johnsongrass ([6]; 250 g ai/ha, scale 0 to 100): 0
Plant response rating (0 to 100), Soybean (soybean (Glycine max); 62 g ai/ha): 0
Plant response rating (0 to 100), Soybean (soybean (Glycine max); 125 g ai/ha): 0
Plant response rating, Soybean (soybean (Glycine max); 250 g ai/ha, scale 0 to 100): 10
Plant response rating (0 to 100), Nutsedge, Yellow ([7]; 62 g ai/ha): 0
Plant response rating (0 to 100), Nutsedge, Yellow ([7]; 125 g ai/ha): 0
Plant response rating, Nutsedge, Yellow ([7]; 250 g ai/ha, scale 0 to 100): 0
Plant response rating (0 to 100), Wheat ([8]; 62 g ai/ha): 0
Plant response rating (0 to 100), Wheat ([8]; 125 g ai/ha): 0
Plant response rating, Wheat ([8]; 250 g ai/ha, scale 0 to 100): 0
Plant response rating (0 to 100), Corn (corn (Zea mays); 31 g ai/ha): 0
Plant response rating (0 to 100), Corn (corn (Zea mays); 62 g ai/ha): 0
Plant response rating (0 to 100), Corn (corn (Zea mays); 125 g ai/ha): 0
Plant response rating, Corn (corn (Zea mays); 250 g ai/ha, scale 0 to 100): 0
Plant response rating (0 to 100), Velvetleaf ([9]; 62 g ai/ha): 55
Plant response rating (0 to 100), Velvetleaf ([9]; 125 g ai/ha): 65
Plant response rating, Velvetleaf ([9]; 250 g ai/ha, scale 0 to 100): 70
Plant response rating (0 to 100), Ryegrass, Italian ([10]; 62 g ai/ha): 0
Plant response rating (0 to 100), Ryegrass, Italian ([10]; 125 g ai/ha): 0
Plant response rating, Ryegrass, Italian ([10]; 250 g ai/ha, scale 0 to 100): 5
Plant response rating (0 to 100), Morningglory ([11]; 62 g ai/ha): 0
Plant response rating (0 to 100), Morningglory ([11]; 125 g ai/ha): 0
Plant response rating, Morningglory ([11]; 250 g ai/ha, scale 0 to 100): 0
